Test results taken from US8921363B2, “Derivatives of 1 H-isoindol-3-amine, 1 H-iso-aza-indol-3amine, 3,4-dihydroisoquinolin-1-amine, and 1,4-dihydroisoquinolin-3-amine as beta-secretase inhibitors” (Amgen Inc., priority 2010, dated 2014).

Legend:
[1] = test system: amyloid beta peptide; experiment: In vivo inhibition of beta-secretase (CSF and brain abeta reduction); conditions: rat, PD dose of 10 mg/kg, after 4 hrs
Source text: Several animal models, including mouse, rat, dog, and monkey, may be used to screen for inhibition of beta-secretase activity in vivo following administration of a test compound sample. Animals used in this invention can be wild type, transgenic, or gene knockout animals. For example, the Tg2576 mouse model, prepared and conducted as described in Hsiao et al., 1996, Science 274, 99-102, and other non-transgenic or gene knockout animals are useful to analyze in vivo inhibition of Amyloid beta peptide (Abeta) production in the presence of inhibitory test compounds. Generally, 2 to 18 month old Tg2576 mice, gene knockout mice or non-transgenic animals are administered test compounds formulated in vehicles, such as cyclodextran, phosphate buffers, hydroxypropyl methylcellulose or other suitable vehicles. One to twenty-four hours following the administration of compound, animals are sacrificed, and brains as well as cerebrospinal fluid (CSF) and plasma are removed for analysis of A-beta levels and drug or test compound concentrations (Dovey et al., 2001, Journal of Neurochemistry, 76,173-181) Beginning at time 0, animals are administered by oral gavage, or other means of delivery such as intravenous injection, an inhibitory test compound of up to 100 mg/kg in a standard, conventional formulation, such as 2% hydroxypropyl methylcellulose, 1% Tween80. A separate group of animals receive 2% hydroxypropyl methylcellulose, 1% Tween80 alone, containing no test compound, and serve as a vehicle-control group. At the end of the test period, animals are sacrificed and brain tissues, plasma or cerebrospinal fluid are collected. Brains are either homogenized in 10 volumes (w/v) of 0.2% diethylamine (DEA) in 50 mM NaCl (Best et al., 2005, Journal of Pharmacology and Experimental Therapeutics, 313, 902-908), or in 10 volumes of 0.5% TritonX-100 in Tris-buffered saline (pH at about 7.6). Homogenates are centrifuged at 355,000 g, 4° C. for 30 minutes. CSF or brain supernatants are then analyzed for the presence of A-beta peptide by specific sandwich ELISA assays based on ECL (Electrochemiluminescence) technology. For example, rat Abeta40 is measured using biotinylated-4G8 (Signet) as a capture antibody and Fab40 (an in-house antibody specific to the C-terminal of Abeta40) as a detection antibody. For example, 4 hours after administration of 30 mg/kg oral dose of the test compound in 2% hydroxypropyl methylcellulose, 1% Tween80 (pH2.2) to 200 g male Sprague Dawley rats, amyloid beta peptide levels are measured for reduction by X % and Y % in cerebrospinal fluid and brain, respectively, when compared to the levels measured in the vehicle-treated or control mice.
Actual vehicles used: Oral: 2% HPMC, 1% Tween80, pH 2.2 […]

[2] = test system: Aβ40 in conditioned medium of cells expressing amyloid precursor protein; experiment: In vitro BACE cell-based assay (HEK cell assay, Aβ40 sandwich ELISA); conditions: Homo sapiens, HEK293; average IC50; Aβ40 after 24 h incubation
[3] = target: BACE1 (Homo sapiens, UniProt P56817); experiment: In vitro enzymatic BACE FRET assay; assay type: biochemical
Procedure: In Vitro Enzymatic BACE FRET (fluorescence resonance energy transfer) Assay (Enzyme Assay data in the Example Table I)
The assay buffer used in this screen is 0.05 M acetate, pH 4.2, 10% DMSO final, 100 uM genapol (which is a nonionic detergent, below its Critical Micelle Concentration). […] This assay is effectively started by the addition of FRET substrate (50 nM) and the combination is incubated for one hour. The FRET assay is terminated with by addition of Tris buffer, which raises the pH to neutrality, and the fluorescence is determined. The FRET substrate is a peptide with commercially available fluorophore and quencher, on opposite sides of the BACE cleavage site. Proteolytic cleavage of the FRET substrate releases quenching of fluorescence (excitation […] and […]).

Sequence of BACE1 (P56817 46-501): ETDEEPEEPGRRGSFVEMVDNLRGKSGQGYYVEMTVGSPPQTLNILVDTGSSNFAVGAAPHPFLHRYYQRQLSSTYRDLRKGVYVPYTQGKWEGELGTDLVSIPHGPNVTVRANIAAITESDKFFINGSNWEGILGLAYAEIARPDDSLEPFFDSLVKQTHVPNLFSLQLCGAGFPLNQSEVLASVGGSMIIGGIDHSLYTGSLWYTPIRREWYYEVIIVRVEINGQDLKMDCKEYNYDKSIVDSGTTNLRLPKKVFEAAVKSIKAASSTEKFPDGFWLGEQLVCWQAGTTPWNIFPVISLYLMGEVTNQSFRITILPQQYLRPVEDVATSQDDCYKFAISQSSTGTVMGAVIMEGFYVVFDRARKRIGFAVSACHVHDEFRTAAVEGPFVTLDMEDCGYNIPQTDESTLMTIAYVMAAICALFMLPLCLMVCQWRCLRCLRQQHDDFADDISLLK

| Compound | CSF abeta reduction [1] | brain abeta reduction [1] | IC50 [2] | IC50 [3] |
| --- | --- | --- | --- | --- |
| NC1=N[C@]2(c3cc(-c4cccnc4F)ccc3Oc3c2cc(C2=CCCOC2)nc3F)c2ccccc21 (single isomer, unassigned) [Example 7-B] | 7% | 10% | 5 nM | 0.5 nM |
| NC1=NC2(c3cc(Br)ccc3Oc3cnc(Cl)cc32)c2ccncc21 (stereo not shown) [Example 16, 7-bromo-3-chlorospiro[chromeno[2,3-c]pyridine-5,1′-pyrrolo[3,4-c]pyridin]-3′-amine] | – | – | > 10000 nM | 9090 nM |
| NC1=N[C@]2(c3cc(-c4cccnc4F)ccc3Oc3c2cc(C2=CCCOC2)nc3F)c2cccnc21 [Example 17-F, (S)-3-(5,6-dihydro-2H-pyran-3-yl)-1-fluoro-7-(2-fluoropyridin-3-yl)spiro[chromeno[2,3-c]pyridine-5,5′-pyrrolo[3,4-b]pyridin]-7′-amine] | – | – | 3 nM | 0.7 nM |
| NC1=N[C@]2(c3cc(-c4cccnc4F)ccc3Oc3c2cc(N2CCOCC2)nc3F)c2cccnc21 [Example 17-G, (S)-1-fluoro-7-(2-fluoropyridin-3-yl)-3-morpholinospiro[chromeno[2,3-c]pyridine-5,5′-pyrrolo[3,4-b]pyridin]-7′-amine] | – | – | 2 nM | 1 nM |
| NC1=NC2(c3cc(Br)ccc3Oc3c2cc(Cl)nc3F)c2cccnc21 (stereo not shown) [Example 17c, 7-bromo-3-chloro-1-fluorospiro[chromeno[2,3-c]pyridine-5,5′-pyrrolo[3,4-b]pyridin]-7′-amine] | – | – | > 10000 nM | > 10000 nM |
| NC1=NC2(c3cc(-c4cccnc4F)ccc3Oc3c2cc(Cl)nc3F)c2cccnc21 (stereo not shown) [Example 17d, 3-chloro-1-fluoro-7-(2-fluoropyridin-3-yl)spiro[chromeno[2,3-c]pyridine-5,5′-pyrrolo[3,4-b]pyridin]-7′-amine 2,2,2-trifluoroacetate] | – | – | 4370 nM | 88 nM |
| NC1=N[C@@]2(c3cc(-c4cccnc4F)ccc3Oc3c2cc(Cl)nc3F)c2cccnc21 [Example 17d-1, (R)-3-chloro-1-fluoro-7-(2-fluoropyridin-3-yl)spiro[chromeno[2,3-c]pyridine-5,5′-pyrrolo[3,4-b]pyridin]-7′-amine] | – | – | > 10000 nM | > 10000 nM |
| NC1=N[C@]2(c3cc(-c4cccnc4F)ccc3Oc3c2cc(Cl)nc3F)c2cccnc21 [Example 17d-2, (S)-3-chloro-1-fluoro-7-(2-fluoropyridin-3-yl)spiro[chromeno[2,3-c]pyridine-5,5′-pyrrolo[3,4-b]pyridin]-7′-amine] | – | – | 1570 nM | 16 nM |
| NC1=N[C@]2(c3cc(-c4cccnc4F)ccc3Oc3c2cc(-c2ccnc(F)c2)nc3F)c2cccnc21 [Example 17e, (S)-1-fluoro-7-(2-fluoropyridin-3-yl)-3-(2-fluoropyridin-4-yl)spiro[chromeno[2,3-c]pyridine-5,5′-pyrrolo[3,4-b]pyridin]-7′-amine] | 41% | 28% | 7 nM | 0.7 nM |
| NC1=NC2(c3ccccc3O1)c1cc(-c3cncnc3)ccc1Oc1cnc(-c3ccnc(F)c3)cc12 (stereo not shown) [Example 20, 3′-(2-fluoropyridin-4-yl)-7′-(pyrimidin-5-yl)spiro[benzo[c][1,3]oxazine-4,5-chromeno[2,3-c]pyridin]-2-amine] | – | – | 106 nM | 2.7 nM |
| NC1=NC2(c3cc(-c4cccnc4F)ccc3Oc3cnc(-c4ccnc(F)c4)cc32)c2ncccc2O1 (stereo not shown) [Example 22, 7-(2-fluoropyridin-3-yl)-3-(2-fluoropyridin-4-yl)spiro[chromeno[2,3-c]pyridine-5,4′-pyrido[2,3-e][1,3]oxazin]-2′-amine] | – | – | 805 nM | 9.9 nM |
| NC1=NC2(c3ccccc3O1)c1cc(-c3cccnc3)ccc1Oc1cnc(-c3ccnc(F)c3)cc12 (stereo not shown) [Example 23, 3′-(2-fluoropyridin-4-yl)-7′-(pyridin-3-yl)spiro[benzo[e][1,3]oxazine-4,5′-chromeno[2,3-c]pyridin]-2-amine] | – | – | 98 nM | 2.9 nM |
